Some results are limits rather than exact numbers.

What all share (assay type): biochemical
The target in experiment [1] is T1, LMWPTP (Homo sapiens, UniProt P24666).
T1 construct: made in house; host or cells: E. coli
T1 sequence (P24666 1-158): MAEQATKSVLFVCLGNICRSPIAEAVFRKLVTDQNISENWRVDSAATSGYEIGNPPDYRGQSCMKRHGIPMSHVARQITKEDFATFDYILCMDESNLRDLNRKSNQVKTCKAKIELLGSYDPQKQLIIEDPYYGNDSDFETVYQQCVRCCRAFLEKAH
Kind of experiment: Tyrosine phosphatase selectivity (pNPP substrate), LMWPTP. The conditions noted are these: for IC50: LMPTP*, pNPP substrate; for IC50PTP/IC50SHP2 LMPTP*: selectivity ratio LMPTP* over SHP2. On the procedure: (§1) This experiment evaluated the selectivity of the disclosed compounds against tyrosine phosphatases, including SHP1, HePTP, Laforin, LMWPTP, LYP, PTP1B, PRL2, SSU72, VHR, FAP1, STEP, CDC14A, CD45, MEG2, and PP5, all expressed and purified from E. coli.
(§2) Phosphatase activity was measured using p-nitrophenyl phosphate (pNPP) (Fisher Scientific) as the substrate in 50 mM 3,3-dimethylglutaric acid buffer (pH 7.0, containing 1 mM EDTA), with ionic strength adjusted to 0.15 M with NaCl. […] After 10-60 minutes, the reaction was quenched by adding 20 µL of 5 N NaOH. Wells without enzyme were used as controls for correction. The amount of the product, p-nitrophenol, was determined by measuring the absorbance at 405 nm using a Spectra MAX340 microplate spectrophotometer (Molecular Devices), with a molar extinction coefficient of 18000 M^-1cm^-1.
(§3) Data were analyzed using GraphPad Prism software. Dose-response curves were obtained by fitting data using the nonlinear S-curve regression Dose-response-inhibition equation, and IC50 values were calculated.

Experiment [2] addresses T2, VHR (Homo sapiens, UniProt P51452).
T2 construct: made in house; host or cells: E. coli
The experiment in a line: Tyrosine phosphatase selectivity (pNPP substrate), VHR. The conditions noted are these: for IC50: VHR, pNPP substrate; for IC50PTP/IC50SHP2 VHR: selectivity ratio VHR over SHP2. As for the experimental part:
as §1, §2, §3

In experiment [3] the target is T3, CDC14A (Homo sapiens, UniProt Q9UNH5).
T3 construct: made in house; host or cells: E. coli
T3 sequence (Q9UNH5 1-594): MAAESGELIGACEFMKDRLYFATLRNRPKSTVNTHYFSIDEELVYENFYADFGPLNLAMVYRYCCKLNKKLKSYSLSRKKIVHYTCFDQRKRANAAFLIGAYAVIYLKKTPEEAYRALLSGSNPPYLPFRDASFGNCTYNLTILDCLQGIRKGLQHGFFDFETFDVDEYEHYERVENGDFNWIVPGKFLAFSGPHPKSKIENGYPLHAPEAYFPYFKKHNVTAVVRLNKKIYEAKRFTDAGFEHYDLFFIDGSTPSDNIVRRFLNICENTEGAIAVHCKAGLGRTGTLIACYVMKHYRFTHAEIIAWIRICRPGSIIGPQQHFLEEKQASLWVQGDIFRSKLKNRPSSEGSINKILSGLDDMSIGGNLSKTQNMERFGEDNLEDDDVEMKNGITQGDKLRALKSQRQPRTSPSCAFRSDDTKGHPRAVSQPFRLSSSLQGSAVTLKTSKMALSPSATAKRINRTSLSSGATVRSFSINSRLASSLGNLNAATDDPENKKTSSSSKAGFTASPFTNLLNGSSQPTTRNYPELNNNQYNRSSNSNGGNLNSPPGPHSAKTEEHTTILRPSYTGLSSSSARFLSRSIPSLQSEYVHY
Kind of experiment: Tyrosine phosphatase selectivity (pNPP substrate), CDC14A. The conditions noted are these: for IC50: CDC14A, pNPP substrate; for IC50PTP/IC50SHP2 CDC14A: selectivity ratio CDC14A over SHP2. As for the experimental part:
as §1, §2, §3

T2 sequence (P51452 whole entry, species assumed): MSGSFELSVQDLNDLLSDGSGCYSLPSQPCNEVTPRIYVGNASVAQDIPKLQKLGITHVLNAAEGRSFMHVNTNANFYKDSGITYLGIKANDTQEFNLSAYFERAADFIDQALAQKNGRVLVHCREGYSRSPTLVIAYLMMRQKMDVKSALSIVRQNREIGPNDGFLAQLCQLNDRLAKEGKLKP

By IC50 is commonly meant the concentration needed to halve the response being measured. On to `O=C(Nc1ccc(-c2ccsc2)cc1)C(=O)Nc1ccc(-c2cc3cc(F)c(-c4nnn[nH]4)cc3n2C2CCC2)cc1` [Example 4], for which, in experiment [1], the IC50 is greater than 20 µM and the “IC50PTP/IC50SHP2 LMPTP*” value turned out to be 689.7. Moreover, in experiment [2], the midpoint of inhibition, the IC50, lay at 4.5 µM and the “IC50PTP/IC50SHP2 VHR” value is 155.2. For the same molecule, in experiment [3], the half-inhibitory concentration (IC50) is greater than 50 µM and the “IC50PTP/IC50SHP2 CDC14A” value worked out at 1724.1.
Regarding `CC1(n2c(-c3ccc(NC(=O)C(=O)Nc4ccc(N5CCC6(CCOC6)CC5)cc4)cc3)cc3cc(F)c(-c4nnn[nH]4)cc32)CCC1` [Example 68], in experiment [1], half-maximal inhibition (IC50) required 0.37 µM and the “IC50PTP/IC50SHP2 LMPTP*” value was found to be 7.7. In experiment [2], the IC50 is greater than 25 µM and the “IC50PTP/IC50SHP2 VHR” value amounted to 520.8. For the same molecule, in experiment [3], the IC50 is greater than 25 µM and the “IC50PTP/IC50SHP2 CDC14A” value came out at 520.8.
`O=C(Nc1ccc(-c2cc3cc(F)c(-c4nnn[nH]4)cc3n2C2CCC2)cc1)C(=O)Nc1ccc(N2CCOCC2)cc1` [Example 47]: in experiment [1], the concentration for half-maximal inhibition (IC50) worked out at 1.09 µM and the “IC50PTP/IC50SHP2 LMPTP*” value came out at 17.3. Moreover, in experiment [2], the IC50 was determined as 1.15 µM and the “IC50PTP/IC50SHP2 VHR” value was 18.2. Also, the “IC50PTP/IC50SHP2 CDC14A” value in experiment [3] came to 1587.
As for `O=C(Nc1ccc(-c2ccsc2)cc1)C(=O)Nc1ccc(-c2cc3cc(F)c(-c4nnn[nH]4)nc3n2C2CCC2)cc1` [Example 132], in experiment [1], the IC50 was greater than 20 µM and the “IC50PTP/IC50SHP2 LMPTP*” value amounted to 740.7. In experiment [2], half-maximal inhibition (IC50) required 10.3 µM and the “IC50PTP/IC50SHP2 VHR” value came out at 381.5. In addition, in experiment [3], the IC50 was greater than 50 µM and the “IC50PTP/IC50SHP2 CDC14A” value is given as 1851.9.
Take `Cn1cc(-c2ccc(NC(=O)C(=O)Nc3ccc(-c4cc5cc(F)c(-c6noc(=O)[nH]6)cc5n4C4CCC4)cc3)cc2)cn1` [Example 123]: in experiment [1], the IC50 was 2.48 µM and the “IC50PTP/IC50SHP2 LMPTP*” value turned out to be 17.6. Further, in experiment [2], the half-maximal inhibitory concentration (IC50) was 2.44 µM and the “IC50PTP/IC50SHP2 VHR” value is recorded as 17.3. In addition, in experiment [3], the half-inhibitory concentration (IC50) was greater than 100 µM and the “IC50PTP/IC50SHP2 CDC14A” value was determined as 709.2.
On to `O=C(Nc1ccc(-c2cc3cc(F)c(-c4nnn[nH]4)cc3n2C2CCC2)cc1)C(=O)Nc1ccc(N2CCC3(CCOC3)CC2)cc1` [Example 67], for which, in experiment [1], the IC50 stood at 1.37 µM and the “IC50PTP/IC50SHP2 LMPTP*” value turned out to be 40.2. In experiment [2], the 50% inhibitory concentration (IC50) was found to be 4.45 µM and the “IC50PTP/IC50SHP2 VHR” value is on record as 130. Besides, the “IC50PTP/IC50SHP2 CDC14A” value in experiment [3] came out at 2941.
For `O=C(Nc1ccc(-c2ccsc2)cc1)C(=O)Nc1ccc(-c2cc3cnc(-c4nnn[nH]4)nc3n2C2CCC2)cc1` [Example 131], in experiment [1], the concentration for half-maximal inhibition (IC50) was greater than 20 µM and the “IC50PTP/IC50SHP2 LMPTP*” value was found to be 769.2. Besides, in experiment [2], the concentration for half-maximal inhibition (IC50) amounted to 9.9 µM and the “IC50PTP/IC50SHP2 VHR” value turned out to be 380.8. In experiment [3], the IC50 was greater than 50 µM and the “IC50PTP/IC50SHP2 CDC14A” value is 1923.1.
For the molecule `O=C(Nc1ccc(-c2ccsc2)cc1)C(=O)Nc1ccc(-c2oc3cc(F)c(-c4nnn[nH]4)cc3c2C2CCC2)cc1` [Example 130], in experiment [1], the concentration for half-maximal inhibition (IC50) is greater than 20 µM and the “IC50PTP/IC50SHP2 LMPTP*” value is on record as 800. In addition, in experiment [2], the concentration for half-maximal inhibition (IC50) was less than 3 µM and the “IC50PTP/IC50SHP2 VHR” value turned out to be 120. In addition, in experiment [3], the IC50 is greater than 50 µM and the “IC50PTP/IC50SHP2 CDC14A” value was 2000.
For the molecule `O=C(Nc1ccc(-c2oc3cc(F)c(-c4nnn[nH]4)cc3c2C2CCC2)cc1)C(=O)Nc1ccc(N2CCC3(CCOC3)CC2)cc1` [Example 125], in experiment [1], half-maximal inhibition (IC50) was put at 2.24 µM and the “IC50PTP/IC50SHP2 LMPTP*” value turned out to be 43.9. In experiment [2], the IC50 turned out to be 88.2 µM and the “IC50PTP/IC50SHP2 VHR” value stood at 1729.4. Moreover, in experiment [3], the IC50 is greater than 100 µM and the “IC50PTP/IC50SHP2 CDC14A” value stood at 1960.8.
Turning to `Cn1c(-c2cccc(NC(=O)C(=O)Nc3ccc(-c4ccsc4)cc3)c2)c(I)c2cc(C(=O)O)c(O)cc21` [Example 11a-1, reference compound], in experiment [1], it took 2.34 µM to reach half-maximal inhibition (IC50) and the “IC50PTP/IC50SHP2 LMPTP*” value stood at 21.6. Further, in experiment [2], the 50% inhibitory concentration (IC50) stood at 3.2 µM and the “IC50PTP/IC50SHP2 VHR” value is 29.6. In experiment [3], the 50% inhibitory concentration (IC50) was found to be 16 µM and the “IC50PTP/IC50SHP2 CDC14A” value is given as 148.
Consider `Cn1cc(-c2ccc(NC(=O)C(=O)Nc3ccc(-c4cc5cc(F)c(-c6nnc(C(F)(F)F)[nH]6)cc5n4C4CCC4)cc3)cc2)cn1` [Example 124], for which, in experiment [1], the IC50 is greater than 20 µM and the “IC50PTP/IC50SHP2 LMPTP*” value is given as 27.9. In addition, in experiment [2], the half-maximal inhibitory concentration (IC50) was greater than 100 µM and the “IC50PTP/IC50SHP2 VHR” value came to 139.7. Moreover, in experiment [3], the IC50 is greater than 100 µM and the “IC50PTP/IC50SHP2 CDC14A” value was determined as 139.7.
`O=C(Nc1ccc(-c2cc3cc(F)c(-c4nnn[nH]4)cc3n2C2CCC2)cc1)C(=O)Nc1ccc(N2CC3COCC3C2)cc1` (stereo not drawn) [Example 114]: in experiment [1], the half-maximal inhibitory concentration (IC50) was 2.13 µM and the “IC50PTP/IC50SHP2 LMPTP*” value was found to be 29.5. Further, in experiment [2], the IC50 was 2.14 µM and the “IC50PTP/IC50SHP2 VHR” value is 29.7. Further, the “IC50PTP/IC50SHP2 CDC14A” value in experiment [3] is 1388.
As to `O=C(Nc1ccc(-c2ccsc2)cc1)C(=O)Nc1ccc(-c2cc3ccc(-c4nnn[nH]4)nc3n2C2CCC2)cc1` [Example 129], in experiment [1], the IC50 was greater than 20 µM and the “IC50PTP/IC50SHP2 LMPTP*” value is on record as 339.0. Further, in experiment [2], the IC50 was less than 3 µM and the “IC50PTP/IC50SHP2 VHR” value amounted to 50.8. In experiment [3], the IC50 is 34.6 µM and the “IC50PTP/IC50SHP2 CDC14A” value was 586.4.
